Key:
[1] = tested on: OCI-LY19; experiment: Combination of EPZ-6438 and other therapeutic agents (4+3 model), OCI-LY19; settings: WT EZH2 GCB; 4+3 model
[2] = tested on: SU-DHL-10; experiment: Combination of EPZ-6438 and other therapeutic agents (4+3 model), SU-DHL-10; settings: Mutant EZH2 GCB
[3] = tested on: WSU-DLCL2; experiment: Combination of EPZ-6438 and other therapeutic agents (4+3 model), WSU-DLCL2; settings: Mutant EZH2 GCB; EPZ-6438 4 days then co-treatment 3 days (4+3 model)
[4] = tested on: OCI-LY3; experiment: Combination of EPZ-6438 and other therapeutic agents (4+3 model), OCI-LY3; settings: WT EXH2 ABC
[5] = tested on: SU-DHL-6; experiment: Combination of EPZ-6438 and other therapeutic agents (4+3 model), SU-DHL-6; settings: Mutant EZH2 GCB
[6] = tested on: RC-K8; experiment: Combination of EPZ-6438 and other therapeutic agents (4+3 model), RC-K8; settings: WT EXH2 ABC
[7] = tested on: KARPAS-422; experiment: Combination of EPZ-6438 and other therapeutic agents (4+3 model), KARPAS-422; settings: Mutant EZH2 GCB
[8] = tested on: SUDHL5; experiment: Combination of EPZ-6438 and other therapeutic agents (4+3 model), SUDHL5; settings: WT EZH2 GCB
[9] = tested on: TMD8; experiment: Combination of EPZ-6438 and other therapeutic agents (4+3 model), TMD8; settings: WT EXH2 ABC
[10] = tested on: SUDHL2; experiment: Combination of EPZ-6438 and other therapeutic agents (4+3 model), SUDHL2; settings: WT EXH2 ABC
[11] = tested on: DOHH2; experiment: Combination of EPZ-6438 and other therapeutic agents (4+3 model), DOHH2; format: cell-based; settings: WT EZH2 GCB
[12] = tested on: OCI-LY7; experiment: Combination of EPZ-6438 and other therapeutic agents (4+3 model), OCI-LY7; settings: WT EZH2 GCB
[13] = tested on: Farage; experiment: Combination of EPZ-6438 and other therapeutic agents (4+3 model), Farage; settings: WT EZH2 GCB
[14] = tested on: HT; experiment: Combination of EPZ-6438 and other therapeutic agents (4+3 model), HT; settings: WT EZH2 GCB

Molecule	combination effect with EPZ-6438, SU-DHL-10 [2]	combination effect with EPZ-6438, WSU-DLCL2 [3]	combination effect with EPZ-6438, SU-DHL-6 [5]	combination effect with EPZ-6438, KARPAS-422 [7]	combination effect with EPZ-6438, SUDHL5 [8]	also measured
CC1(C)CCC(CN2CCN(c3ccc(C(=O)NS(=O)(=O)c4ccc(NCC5CCOCC5)c([N+](=O)[O-])c4)c(Oc4cnc5[nH]ccc5c4)c3)CC2)=C(c2ccc(Cl)cc2)C1 [ABT-199]	ADD.	S	ADD.	S	–	combination effect with EPZ-6438, OCI-LY19 [1]: S; combination effect with EPZ-6438, OCI-LY3 [4]: S; combination effect with EPZ-6438, RC-K8 [6]: S
COc1cc(Nc2ncc3c(n2)-c2ccc(Cl)cc2C(c2c(F)cccc2OC)=NC3)ccc1C(=O)O [Alisertib]	ADD.	ADD.	–	–	ADD.	–
Cc1nc(Nc2ncc(C(=O)Nc3c(C)cccc3Cl)s2)cc(N2CCN(CCO)CC2)n1 [Dasatinib]	S	S	–	–	S	combination effect with EPZ-6438, TMD8 [9]: S
Cn1cc(C2=C(c3cn(C4CCN(Cc5ccccn5)CC4)c4ccccc34)C(=O)NC2=O)c2ccccc21 [Enzastaurin]	S	ADD.	–	–	ADD.	–
COc1cc([C@@H]2c3cc4c(cc3[C@@H](O[C@@H]3O[C@@H]5CO[C@@H](C)O[C@H]5[C@H](O)[C@H]3O)[C@H]3COC(=O)[C@H]23)OCO4)cc(OC)c1O [Etoposide]	–	S	–	S	S	–
Cc1cnc(Nc2ccc(OCCN3CCCC3)cc2)nc1Nc1cccc(S(=O)(=O)NC(C)(C)C)c1 [Fedratinib]	–	–	–	–	–	combination effect with EPZ-6438, SUDHL2 [10]: ADD.
CC(C)NC[C@@H](C(=O)N1CCN(c2ncnc3c2[C@H](C)C[C@H]3O)CC1)c1ccc(Cl)cc1 [GDC0068, Ipatasertib]	–	S	–	S	S	–
CCn1c(-c2nonc2N)nc2c(C#CC(C)(C)O)ncc(OC[C@H]3CCCNC3)c21 [GSK690693]	–	S	–	S	S	–
CCn1cc(-c2ccnc3[nH]c(-c4cccc(CN(C)C)c4)cc23)c(-c2ccc(NC(=O)N(C)C)cc2)n1 [GSK1070916]	ADD.	S	–	–	–	–
COc1ncc(-c2ccc3nccc(-c4ccnnc4)c3c2)cc1NS(=O)(=O)c1ccc(F)cc1F [GSK2126458, Omipalisib]	–	S	–	S	S	–
CCOC(=O)CCNc1cc(N2CCc3ccccc3CC2)nc(-c2ccccn2)n1 [GSK J4]	–	ADD.	ADD.	–	–	combination effect with EPZ-6438, OCI-LY19 [1]: ADD.; combination effect with EPZ-6438, SUDHL2 [10]: ADD.; combination effect with EPZ-6438, RC-K8 [6]: ADD.; combination effect with EPZ-6438, DOHH2 [11]: ADD.
CC[C@H](Nc1ncnc2[nH]cnc12)c1nc2cccc(F)c2c(=O)n1-c1ccccc1 [Idelalisib]	S	S	S	S	S	combination effect with EPZ-6438, OCI-LY7 [12]: S; combination effect with EPZ-6438, Farage [13]: S; combination effect with EPZ-6438, TMD8 [9]: S; combination effect with EPZ-6438, OCI-LY3 [4]: S; combination effect with EPZ-6438, RC-K8 [6]: S; combination effect with EPZ-6438, HT [14]: S
Cc1sc2c(c1C)C(c1ccc(Cl)cc1)=N[C@@H](CC(=O)OC(C)(C)C)c1nnc(C)n1-2 [JQ1]	–	S	S	S	–	combination effect with EPZ-6438, OCI-LY19 [1]: S; combination effect with EPZ-6438, SUDHL2 [10]: S; combination effect with EPZ-6438, RC-K8 [6]: S
Nc1cccc2c1CN(C1CCC(=O)NC1=O)C2=O (stereo not shown) [Lenalidomide]	–	–	–	–	–	combination effect with EPZ-6438, RC-K8 [6]: S
NC1(c2ccc(-c3nc4ccn5c(=O)[nH]nc5c4cc3-c3ccccc3)cc2)CCC1 [MK-2206]	S	S	S	S	S	combination effect with EPZ-6438, OCI-LY19 [1]: S; combination effect with EPZ-6438, OCI-LY7 [12]: S; combination effect with EPZ-6438, Farage [13]: S; combination effect with EPZ-6438, TMD8 [9]: S; combination effect with EPZ-6438, OCI-LY3 [4]: S; combination effect with EPZ-6438, RC-K8 [6]: S; combination effect with EPZ-6438, HT [14]: S
CN(Cc1cnc2nc(N)nc(N)c2n1)c1ccc(C(=O)N[C@@H](CCC(=O)O)C(=O)O)cc1 [Methotrexate]	–	ANTAG.	–	–	–	combination effect with EPZ-6438, OCI-LY19 [1]: ANTAG.; combination effect with EPZ-6438, SUDHL2 [10]: ANTAG.; combination effect with EPZ-6438, RC-K8 [6]: ANTAG.; combination effect with EPZ-6438, DOHH2 [11]: ANTAG.
CC1(C)CCC(c2ccc(Cl)cc2)=C(CN2CCN(c3ccc(C(=O)NS(=O)(=O)c4ccc(N[C@H](CCN5CCOCC5)CSc5ccccc5)c(S(=O)(=O)C(F)(F)F)c4)cc3)CC2)C1 [Navitoclax]	S	S	S	S	–	combination effect with EPZ-6438, OCI-LY19 [1]: S; combination effect with EPZ-6438, OCI-LY7 [12]: S; combination effect with EPZ-6438, OCI-LY3 [4]: S; combination effect with EPZ-6438, RC-K8 [6]: S
COC1=CC(c2cc3ccccc3[nH]2)=N/C1=C\c1[nH]c(C)cc1C [Obatoclax]	ADD.	ADD.	ADD.	S	–	–
CC(=O)c1c(C)c2cnc(Nc3ccc(N4CCNCC4)cn3)nc2n(C2CCCC2)c1=O [Palbociclib]	–	S	–	S	S	–
CN(C)C(=O)c1cc2cnc(Nc3ccc(N4CCNCC4)cn3)nc2n1C1CCCC1 [Ribociclib]	–	S	–	S	S	–
N#CC[C@H](C1CCCC1)n1cc(-c2ncnc3[nH]ccc23)cn1 [Ruxolitinib]	S	–	–	–	–	combination effect with EPZ-6438, TMD8 [9]: S
CNC(=O)c1cc(Oc2ccc(NC(=O)Nc3ccc(Cl)c(C(F)(F)F)c3)cc2)ccn1 [Sorafenib]	–	ADD.	–	–	–	–
COc1cc(Nc2ncc(F)c(Nc3ccc4c(n3)NC(=O)C(C)(C)O4)n2)cc(OC)c1OC [Tamatinib]	S	S	S	S	S	combination effect with EPZ-6438, OCI-LY7 [12]: S; combination effect with EPZ-6438, Farage [13]: S; combination effect with EPZ-6438, SUDHL2 [10]: S; combination effect with EPZ-6438, TMD8 [9]: S; combination effect with EPZ-6438, OCI-LY3 [4]: S; combination effect with EPZ-6438, HT [14]: S
CC(=O)Nc1cccc(-n2c(=O)n(C3CC3)c(=O)c3c(Nc4ccc(I)cc4F)n(C)c(=O)c(C)c32)c1 [Trametinib]	S	S	S	S	S	combination effect with EPZ-6438, OCI-LY7 [12]: S; combination effect with EPZ-6438, Farage [13]: S; combination effect with EPZ-6438, TMD8 [9]: S; combination effect with EPZ-6438, OCI-LY3 [4]: S
CC(C)C[C@H](NC(=O)[C@H](Cc1ccccc1)NC(=O)c1cnccn1)B(O)O [Velcade]	ADD.	ADD.	ADD.	–	–	–
CCCS(=O)(=O)Nc1ccc(F)c(C(=O)c2c[nH]c3ncc(-c4ccc(Cl)cc4)cc23)c1F [Vemurafenib]	–	ADD.	–	–	–	–
OG-L002	–	–	–	–	–	combination effect with EPZ-6438, SUDHL2 [10]: ANTAG.
Rituximab: therapeutic agent combined with EPZ-6438; component of R-CHOP	–	S	S	–	–	–

Reference: patent US11951109B2, “EZH2 inhibitors for treating lymphoma” (Epizyme, Inc., priority 2015, dated 2024)
